Literature values as cited in US20030157036A1, “Topical dapsone for the treatment of acne” (priority 2002, published 2003).

Tested on: P. acnes

## Nc1ccc(S(=O)(=O)c2ccc(N)cc2)cc1 [Dapsone, bis(4-aminophenyl)sulfone]
  minimum inhibitory concentration: about 1 microgram per milliliter
